Key:
α6-100R-β3γ2 (α6β3γ2s) [1] = target: α6-100R-β3γ2 (α6β3γ2s) (Rattus norvegicus, UniProt P18508+P30191); experiment: radioligand association/dissociation kinetics, filtration; format: binding
α6-100R-β3γ2 (α6β3γ2s) [2] = target: α6-100R-β3γ2 (α6β3γ2s) (Rattus norvegicus, UniProt P18508+P30191, P30191:R119Q); experiment: as above; format: binding
Chain of α6-100R-β3γ2 (α6β3γ2s) (Rattus norvegicus, UniProt P18508+P30191, P30191:R119Q) (P30191 20-453 R119Q): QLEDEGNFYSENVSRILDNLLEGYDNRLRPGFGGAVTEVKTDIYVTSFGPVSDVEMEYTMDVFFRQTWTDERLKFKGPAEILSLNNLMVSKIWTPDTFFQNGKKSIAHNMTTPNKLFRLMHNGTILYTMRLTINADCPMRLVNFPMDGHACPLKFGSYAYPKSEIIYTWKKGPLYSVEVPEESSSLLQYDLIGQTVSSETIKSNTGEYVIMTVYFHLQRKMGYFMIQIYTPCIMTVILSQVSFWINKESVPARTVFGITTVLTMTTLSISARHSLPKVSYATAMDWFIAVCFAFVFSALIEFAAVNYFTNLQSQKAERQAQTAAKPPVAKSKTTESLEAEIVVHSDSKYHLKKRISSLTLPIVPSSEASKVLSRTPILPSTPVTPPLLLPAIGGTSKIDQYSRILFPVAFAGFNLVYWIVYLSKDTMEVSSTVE
Chain of α6-100R-β3γ2 (α6β3γ2s) (Rattus norvegicus, UniProt P18508+P30191, P30191:R119Q) (P18508 39-466): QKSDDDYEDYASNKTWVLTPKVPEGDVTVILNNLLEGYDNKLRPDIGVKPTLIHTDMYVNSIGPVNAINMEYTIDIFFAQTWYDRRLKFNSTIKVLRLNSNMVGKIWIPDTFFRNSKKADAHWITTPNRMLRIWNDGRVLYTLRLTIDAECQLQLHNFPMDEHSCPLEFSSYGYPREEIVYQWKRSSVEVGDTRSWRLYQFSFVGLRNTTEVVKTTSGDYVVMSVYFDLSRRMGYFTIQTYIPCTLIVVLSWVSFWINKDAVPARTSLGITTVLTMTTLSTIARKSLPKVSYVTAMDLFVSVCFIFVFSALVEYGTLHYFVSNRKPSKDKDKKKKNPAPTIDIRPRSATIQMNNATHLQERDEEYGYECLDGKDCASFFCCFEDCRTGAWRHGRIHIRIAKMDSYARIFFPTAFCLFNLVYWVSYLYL
Chain of α6-100R-β3γ2 (α6β3γ2s) (Rattus norvegicus, UniProt P18508+P30191, P30191:R119Q) (P63079 26-473 partner): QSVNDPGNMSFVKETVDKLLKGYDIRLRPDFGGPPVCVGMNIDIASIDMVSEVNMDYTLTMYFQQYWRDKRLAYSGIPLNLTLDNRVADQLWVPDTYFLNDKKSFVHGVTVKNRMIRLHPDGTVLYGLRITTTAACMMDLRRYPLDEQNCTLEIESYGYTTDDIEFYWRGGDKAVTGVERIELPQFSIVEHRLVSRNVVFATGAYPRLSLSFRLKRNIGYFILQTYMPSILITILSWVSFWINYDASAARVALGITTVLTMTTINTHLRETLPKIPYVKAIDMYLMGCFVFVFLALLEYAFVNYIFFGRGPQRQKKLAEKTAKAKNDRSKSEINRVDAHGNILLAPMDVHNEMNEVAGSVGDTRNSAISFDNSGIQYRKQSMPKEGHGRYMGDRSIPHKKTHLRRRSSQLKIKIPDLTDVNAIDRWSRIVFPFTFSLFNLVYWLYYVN

Chain of α6-100R-β3γ2 (α6β3γ2s) (Rattus norvegicus, UniProt P18508+P30191) (P30191 20-453): as the sequence (P30191 20-453 R119Q) above, with Q100R counted along it
Chain of α6-100R-β3γ2 (α6β3γ2s) (Rattus norvegicus, UniProt P18508+P30191) (P18508 39-466): as the sequence (P18508 39-466) above
Chain of α6-100R-β3γ2 (α6β3γ2s) (Rattus norvegicus, UniProt P18508+P30191) (P63079 26-473 partner): as the sequence (P63079 26-473 partner) above

CCOC(=O)c1ncn2c1CN(C)C(=O)c1cc(N=[N+]=[N-])ccc1-2 [[^3H]Ro 15-4513]
Kd (α6-100R-β3γ2 (α6β3γ2s) [1]): 2.4 ± 0.4 nM | Kd (α6-100R-β3γ2 (α6β3γ2s) [2]): 1 ± 0.1 nM
